Compound: COc1cccc2c1C(=O)c1c(O)c3c(c(O)c1C2=O)C[C@@](O)(C(=O)CO)C[C@@H]3O[C@H]1C[C@H](N)[C@H](O)[C@H](C)O1 [Doxorubicin] + CC1(C)CCC(c2ccc(Cl)cc2)=C(CN2CCN(c3ccc(C(=O)NS(=O)(=O)c4ccc(N[C@H](CCN5CCOCC5)CSc5ccccc5)c(S(=O)(=O)C(F)(F)F)c4)cc3)CC2)C1 [Navitoclax] (partner 0.5 µM)
Assay: relative viability (nuclei count vs DMSO), 5 days (fraction); higher = more cells survive
Conditions: first compound 0.001 µM
How it was run: (§1)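 One day after seeding in 1536-well plates, lung cancer cell lines were dosed by pin tool. Dosing was either single-drug or a fixed anchor-drug dose plus five library-drug doses (not always all listed) in √10 steps. After 5 days, nuclei were stained in one fix-and-stain step and counted on 4× images, and relative viability is the nuclei count of treated wells over that of vehicle wells, given as the median of duplicate plates.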

Cell Line	relative viability
NCI-H3122	1.05
NCI-H1395	0.992
201T	1.16
NCI-H1975	1.2
HOP-62	1.06
NCI-H1355	0.982
NCI-H838	1.12
CAL-12T	1.09
NCI-H1666	0.882
EPLC-272H	1.11
NCI-H2347	0.628
NCI-H1915	0.778
NCI-H1437	1.03
NCI-H460	1.07
NCI-H2085	1.28
HCC-15	0.707
NCI-H1944	1.05
EKVX	0.929
NCI-H1650	1.11
NCI-H2170	0.584
NCI-H1993	0.947
SK-MES-1	1.28
PC-14	0.997

Same assay, conditions: first compound 0.003162 µM

Cell Line	relative viability
NCI-H3122	1.01
NCI-H441	0.688
NCI-H1395	1
201T	1.19
NCI-H1975	1.22
HOP-62	0.927
NCI-H2405	0.779
NCI-H1355	1.1
NCI-H838	1.17
CAL-12T	1.16
NCI-H1666	0.953
EPLC-272H	1.37
NCI-H2347	0.768
NCI-H1915	0.813
NCI-H1437	1.12
NCI-H460	1.18
NCI-H2085	1.24
HCC-15	0.716
NCI-H1944	1.13
EKVX	1.09
NCI-H1650	1.18
NCI-H2170	0.726
NCI-H1993	0.876
NCI-H23	0.686
SK-MES-1	0.745
PC-14	1.1
HCC-366	1.03

Same assay, conditions: first compound 0.01 µM

Cell Line	relative viability
NCI-H3122	0.973
NCI-H441	0.351
NCI-H1395	1.07
201T	1.2
NCI-H1975	1.06
HOP-62	0.988
NCI-H2405	0.851
NCI-H1355	0.911
NCI-H838	1.12
CAL-12T	1.24
NCI-H1666	0.55
EPLC-272H	0.971
NCI-H2347	0.77
NCI-H1915	0.788
NCI-H1437	1.02
NCI-H460	0.945
NCI-H2085	1.09
HCC-15	0.705
NCI-H1944	1.03
EKVX	1
NCI-H1650	1.11
NCI-H2170	0.567
NCI-H1993	0.884
NCI-H23	0.767
SK-MES-1	1.09
PC-14	0.973
HCC-366	0.99

Same assay, conditions: first compound 0.03162 µM

Cell Line	relative viability
NCI-H3122	1.02
NCI-H441	0.308
NCI-H1395	0.861
201T	1.24
NCI-H1975	0.791
HOP-62	0.944
NCI-H2405	0.639
NCI-H1355	0.904
NCI-H838	0.905
CAL-12T	0.423
NCI-H1666	0.282
EPLC-272H	1.11
NCI-H2347	0.71
NCI-H1915	0.784
NCI-H1437	0.75
NCI-H460	0.0444
NCI-H2085	0.882
HCC-15	0.665
NCI-H1944	0.977
EKVX	0.853
NCI-H1650	0.33
NCI-H2170	0.389
NCI-H1993	1.01
NCI-H23	0.698
SK-MES-1	1.01
PC-14	1.01
HCC-366	0.809

Same assay, conditions: first compound 0.1 µM

Cell Line	relative viability
NCI-H3122	1.02
NCI-H441	0.423
NCI-H1395	0.898
201T	1.21
NCI-H1975	0.569
HOP-62	1.01
NCI-H2405	0.493
NCI-H1355	1.06
NCI-H838	0.423
CAL-12T	0.182
NCI-H1666	0.275
EPLC-272H	1.05
NCI-H2347	0.85
NCI-H1915	0.829
NCI-H1437	0.379
NCI-H460	0.0158
NCI-H2085	1.01
HCC-15	0.634
NCI-H1944	1.19
EKVX	0.61
NCI-H1650	0.203
NCI-H2170	0.597
NCI-H1993	0.889
NCI-H23	0.926
SK-MES-1	0.76
PC-14	0.945
HCC-366	1.07

Compound: COC1=C(C=C(C=C1)C2=CC3=NC=CN3C(=N2)NC4=C(C=CC=N4)C(=O)N)OC [BAY61-3606] + CC1(C)CCC(c2ccc(Cl)cc2)=C(CN2CCN(c3ccc(C(=O)NS(=O)(=O)c4ccc(N[C@H](CCN5CCOCC5)CSc5ccccc5)c(S(=O)(=O)C(F)(F)F)c4)cc3)CC2)C1 [Navitoclax] (partner 0.5 µM)
Assay: as above
Conditions: first compound 0.02 µM
How it was run: as §1

Cell Line	relative viability
NCI-H3122	0.975
NCI-H441	0.84
NCI-H1395	1.26
201T	1.22
NCI-H1975	1.16
HOP-62	0.981
NCI-H2405	0.904
NCI-H1355	1.08
NCI-H838	1.3
CAL-12T	1.23
NCI-H1666	1.17
EPLC-272H	1.1
NCI-H2347	0.802
NCI-H1915	0.775
NCI-H1437	1.1
NCI-H460	1.27
NCI-H2085	1.31
HCC-15	0.796
NCI-H1944	1.12
EKVX	1.04
NCI-H1650	1.21
NCI-H2170	0.618
NCI-H1993	0.831
NCI-H23	0.936
SK-MES-1	1.32
PC-14	1.04
HCC-366	1.09

Same assay, conditions: first compound 0.06325 µM

Cell Line	relative viability
NCI-H3122	0.962
NCI-H441	0.515
NCI-H1395	1.04
201T	1.2
NCI-H1975	0.937
HOP-62	1.08
NCI-H2405	0.669
NCI-H1355	0.962
NCI-H838	1.24
CAL-12T	1.42
EPLC-272H	1
NCI-H2347	0.789
NCI-H1915	0.779
NCI-H1437	1.16
NCI-H460	1.28
NCI-H2085	1.23
HCC-15	0.703
NCI-H1944	1.1
EKVX	1.04
NCI-H1650	1.19
NCI-H2170	0.607
NCI-H1993	0.785
NCI-H23	0.809
SK-MES-1	1.3
PC-14	1.11
HCC-366	1.05

Same assay, conditions: first compound 0.2 µM

Cell Line	relative viability
NCI-H3122	1.05
NCI-H441	0.66
NCI-H1395	1.49
201T	1.23
NCI-H1975	1.02
HOP-62	0.981
NCI-H2405	0.857
NCI-H1355	0.865
NCI-H838	1.07
CAL-12T	1.2
NCI-H1666	1.06
EPLC-272H	0.934
NCI-H2347	0.859
NCI-H1915	0.715
NCI-H1437	1.06
NCI-H460	1.06
NCI-H2085	1.12
HCC-15	0.691
NCI-H1944	1.01
EKVX	0.884
NCI-H1650	1.16
NCI-H2170	0.572
NCI-H1993	0.707
NCI-H23	0.775
SK-MES-1	1.24
PC-14	0.983
HCC-366	0.87

Same assay, conditions: first compound 0.6325 µM

Cell Line	relative viability
NCI-H3122	1
NCI-H441	0.82
NCI-H1395	1.35
201T	1.21
NCI-H1975	1.04
HOP-62	1.08
NCI-H2405	1.08
NCI-H1355	0.995
NCI-H838	1.12
CAL-12T	1.27
NCI-H1666	0.965
EPLC-272H	1.19
NCI-H2347	0.936
NCI-H1915	0.755
NCI-H1437	1.12
NCI-H460	1.1
NCI-H2085	1.33
HCC-15	0.702
NCI-H1944	1.02
EKVX	0.959
NCI-H1650	1.27
NCI-H2170	0.517
NCI-H1993	0.819
NCI-H23	0.983
SK-MES-1	1.39
PC-14	1.01
HCC-366	0.999

Same assay, conditions: first compound 2 µM

Cell Line	relative viability
NCI-H3122	0.987
NCI-H441	0.262
NCI-H1395	0.966
201T	1.3
NCI-H1975	0.72
HOP-62	0.676
NCI-H2405	0.655
NCI-H1355	0.721
NCI-H838	0.956
CAL-12T	0.67
NCI-H1666	1.02
EPLC-272H	1.19
NCI-H2347	0.754
NCI-H1915	0.765
NCI-H1437	1.06
NCI-H460	0.756
NCI-H2085	1.01
HCC-15	0.683
NCI-H1944	1.04
EKVX	0.938
NCI-H1650	0.751
NCI-H2170	0.259
NCI-H1993	0.739
NCI-H23	0.551
SK-MES-1	1.09
PC-14	0.982
HCC-366	0.891
